Tests used:
[1] = biological target: GDP-bound NRAS wild-type protein (Homo sapiens, UniProt P01111); assay: Binding to NRAS by surface plasmon resonance (SPR), Single Cycle Kinetics; details: SPR, GDP-bound NRAS wild-type protein vs GDP-bound KRAS wild-type protein
[2] = biological target: GDP-bound KRAS wild-type protein (Homo sapiens, UniProt P01116); assay: Binding to KRAS by surface plasmon resonance (SPR), Single Cycle Kinetics; details: SPR, Single Cycle Kinetics, GDP-bound KRAS wild-type protein; read-out: KRAS KD
[3] = biological target: GDP-bound HRAS wild-type protein (Homo sapiens, UniProt P01112); assay: Binding to HRAS by surface plasmon resonance (SPR), Single Cycle Kinetics; details: SPR, GDP-bound HRAS wild-type protein vs GDP-bound KRAS wild-type protein
GDP-bound HRAS wild-type protein, sequence (P01112 whole entry): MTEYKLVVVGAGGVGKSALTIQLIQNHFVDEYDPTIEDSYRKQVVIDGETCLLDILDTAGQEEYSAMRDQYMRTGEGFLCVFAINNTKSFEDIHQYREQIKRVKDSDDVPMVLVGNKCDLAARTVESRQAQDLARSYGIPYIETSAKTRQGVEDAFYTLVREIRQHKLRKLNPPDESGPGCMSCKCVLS

GDP-bound KRAS wild-type protein, sequence (P01116 whole entry): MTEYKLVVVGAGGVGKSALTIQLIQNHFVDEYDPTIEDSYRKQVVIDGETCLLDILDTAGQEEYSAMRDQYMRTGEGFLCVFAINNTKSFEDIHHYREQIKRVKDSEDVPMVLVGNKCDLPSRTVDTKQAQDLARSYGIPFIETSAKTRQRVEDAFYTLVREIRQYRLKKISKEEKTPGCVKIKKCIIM
GDP-bound NRAS wild-type protein, sequence (P01111 whole entry): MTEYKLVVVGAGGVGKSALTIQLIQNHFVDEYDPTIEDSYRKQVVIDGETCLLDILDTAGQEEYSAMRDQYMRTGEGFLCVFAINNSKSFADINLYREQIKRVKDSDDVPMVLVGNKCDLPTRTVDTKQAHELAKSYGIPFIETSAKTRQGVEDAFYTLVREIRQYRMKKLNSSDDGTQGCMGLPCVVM

SMILES | NRAS/KRAS (ratio of KD value for NRAS to KD value for KRAS) [1] | Kd [2] | HRAS/KRAS (ratio of KD value for HRAS to KD value for KRAS) [3]
CCO[C@@H]1C[C@H]2C(=O)NC3(CC(C)(C)C3)C(=O)N(C)[C@@H](C(CC)CC)C(=O)N(C)[C@H](C(=O)N3CCCC3)CC(=O)N(C)[C@@H](C)C(=O)N[C@@H]([C@@H](C)CC)C(=O)N(C)CC(=O)N(C)[C@H]3C/C=C\CCN(C3=O)[C@@H](Cc3ccc(C)cc3)C(=O)N(C)CC(=O)N[C@@H](CCc3ccc(C(F)(F)F)c(OC)c3)C(=O)N2C1 [PP2169] | AA (a compound having 20 or more is denoted as AA) | 0.63 nM | A (a compound having 10 or more and less than 20 is denoted as A)
CCO[C@@H]1C[C@H]2C(=O)NC3(CC(C)(C)C3)C(=O)N(C)[C@@H](C(CC)CC)C(=O)N(C)[C@H](C(=O)N(C)C)CC(=O)N(C)[C@@H](CC)C(=O)N[C@@H]([C@@H](C)CC)C(=O)N(C)CC(=O)N(C)[C@H]3C/C=C\CCN(C3=O)[C@@H](Cc3ccc(C)cc3)C(=O)N(C)CC(=O)N[C@@H](CCc3ccc(C(F)(F)F)c(OC)c3)C(=O)N2C1 [PP2170] | A (a compound having 10 or more and less than 20 is denoted as A) | 0.33 nM | A (a compound having 10 or more and less than 20 is denoted as A)
CCO[C@@H]1C[C@H]2C(=O)NC3(CC(C)(C)C3)C(=O)N(C)[C@@H](C(CC)CC)C(=O)N(C)[C@H](C(=O)N3CCCC3)CC(=O)N(C)[C@@H](CC)C(=O)N[C@@H]([C@@H](C)CC)C(=O)N(C)CC(=O)N(C)[C@H]3C/C=C\CCN(C3=O)[C@@H](Cc3ccc(C)cc3)C(=O)N(C)CC(=O)N[C@@H](CCc3ccc(C(F)(F)F)c(OC)c3)C(=O)N2C1 [PP2171] | A (a compound having 10 or more and less than 20 is denoted as A) | 0.75 nM | A (a compound having 10 or more and less than 20 is denoted as A)
CCO[C@@H]1C[C@H]2C(=O)NC3(CC(C)(C)C3)C(=O)N(C)[C@@H](C(CC)CC)C(=O)N(C)[C@H](C(=O)N(C)C)CC(=O)N(C)[C@@H](CC3CCC3)C(=O)N[C@@H]([C@@H](C)CC)C(=O)N(C)CC(=O)N(C)[C@H]3C/C=C\CCN(C3=O)[C@@H](Cc3ccc(C)cc3)C(=O)N(C)CC(=O)N[C@@H](CCc3ccc(C(F)(F)F)c(OC)c3)C(=O)N2C1 [PP2172] | A (a compound having 10 or more and less than 20 is denoted as A) | 0.51 nM | B (a compound having 3 or more and less than 10 is denoted as B)
CCO[C@@H]1C[C@H]2C(=O)NC3(CC(C)(C)C3)C(=O)N(C)[C@@H](C(CC)CC)C(=O)N(C)[C@H](C(=O)N(C)C)CC(=O)N(C)[C@@H](C(C)C)C(=O)N[C@@H]([C@@H](C)CC)C(=O)N(C)CC(=O)N(C)[C@H]3C/C=C\CCN(C3=O)[C@@H](Cc3ccc(C)cc3)C(=O)N(C)CC(=O)N[C@@H](CCc3ccc(C(F)(F)F)c(OC)c3)C(=O)N2C1 [PP2173] | A (a compound having 10 or more and less than 20 is denoted as A) | 0.55 nM | A (a compound having 10 or more and less than 20 is denoted as A)
CCO[C@@H]1C[C@H]2C(=O)NC3(CC(C)(C)C3)C(=O)N(C)[C@@H](C(CC)CC)C(=O)N(C)[C@H](C(=O)N3CCCC3)CC(=O)N(C)[C@@H](COC)C(=O)N[C@@H]([C@@H](C)CC)C(=O)N(C)CC(=O)N(C)[C@H]3C/C=C\CCN(C3=O)[C@@H](Cc3ccc(C(F)(F)F)cc3)C(=O)N(C)CC(=O)N[C@@H](CCc3ccc(Cl)c(Cl)c3)C(=O)N2C1 [PP2174] | AA (a compound having 20 or more is denoted as AA) | 0.4 nM | A (a compound having 10 or more and less than 20 is denoted as A)
CCO[C@@H]1C[C@H]2C(=O)NC3(CC(C)(C)C3)C(=O)N(C)[C@@H](C(CC)CC)C(=O)N(C)[C@H](C(=O)N(C)C)CC(=O)N(C)[C@@H](CC(C)C)C(=O)N[C@@H]([C@@H](C)CC)C(=O)N(C)CC(=O)N(C)[C@H]3C/C=C\CCN(C3=O)[C@@H](Cc3ccc(C(F)(F)F)cc3)C(=O)N(C)CC(=O)N[C@@H](CCc3ccc(Cl)c(Cl)c3)C(=O)N2C1 [PP2176] | AA (a compound having 20 or more is denoted as AA) | 0.47 nM | A (a compound having 10 or more and less than 20 is denoted as A)
CCO[C@@H]1C[C@H]2C(=O)NC3(CC(C)(C)C3)C(=O)N(C)[C@@H](C(CC)CC)C(=O)N(C)[C@H](C(=O)N3CCCC3)CC(=O)N(C)[C@@H](C)C(=O)N[C@@H]([C@@H](C)CC)C(=O)N(C)CC(=O)N(C)[C@H]3C/C=C\CCN(C3=O)[C@@H](Cc3ccc(C(F)(F)F)cc3)C(=O)N(C)CC(=O)N[C@@H](CCc3ccc(Cl)c(Cl)c3)C(=O)N2C1 [PP2178] | AA (a compound having 20 or more is denoted as AA) | 0.49 nM | A (a compound having 10 or more and less than 20 is denoted as A)
CCO[C@@H]1C[C@H]2C(=O)NC3(CC(C)(C)C3)C(=O)N(C)[C@@H](C(CC)CC)C(=O)N(C)[C@H](C(=O)N(C)C)CC(=O)N(C)[C@@H](CC3CCC3)C(=O)N[C@@H]([C@@H](C)CC)C(=O)N(C)CC(=O)N(C)[C@H]3C/C=C\CCN(C3=O)[C@@H](Cc3ccc(C(F)(F)F)cc3)C(=O)N(C)CC(=O)N[C@@H](CCc3ccc(Cl)c(Cl)c3)C(=O)N2C1 [PP2180] | AA (a compound having 20 or more is denoted as AA) | 0.66 nM | A (a compound having 10 or more and less than 20 is denoted as A)
CCO[C@@H]1C[C@H]2C(=O)NC3(CC(C)(C)C3)C(=O)N(C)[C@@H](C(CC)CC)C(=O)N(C)[C@H](C(=O)N(C)C)CC(=O)N(C)[C@@H](C(C)C)C(=O)N[C@@H]([C@@H](C)CC)C(=O)N(C)CC(=O)N(C)[C@H]3C/C=C\CCN(C3=O)[C@@H](Cc3ccc(C(F)(F)F)cc3)C(=O)N(C)CC(=O)N[C@@H](CCc3ccc(Cl)c(Cl)c3)C(=O)N2C1 [PP2181] | AA (a compound having 20 or more is denoted as AA) | 1.4 nM | A (a compound having 10 or more and less than 20 is denoted as A)
CCC[C@H]1C(=O)N[C@@H]([C@@H](C)CC)C(=O)N(C)CC(=O)N(C)[C@H]2C/C=C\CCN(C2=O)[C@@H](Cc2ccc(C)cc2)C(=O)N(C)CC(=O)N[C@@H](CCc2ccc(Cl)c(Cl)c2)C(=O)N2C[C@H](OCC)C[C@H]2C(=O)NC2(CC(C)(C)C2)C(=O)N(C)[C@@H](C(CC)CC)C(=O)N(C)[C@H](C(=O)N(C)C)CC(=O)N1C [PP2184] | AA (a compound having 20 or more is denoted as AA) | 0.7 nM | A (a compound having 10 or more and less than 20 is denoted as A)

Reference: patent US20240158446A1, “CYCLIC COMPOUND HAVING SELECTIVE INHIBITORY ACTION ON KRAS OVER HRAS AND NRAS” (CHUGAI SEIYAKU KABUSHIKI KAISHA, priority 2021, published 2024)
